In patent US9366676B2, “Fluorescent chemical compounds having high selectivity for double stranded DNA, and methods for their use” (LIFE TECHNOLOGIES CORPORATION, priority 2005, dated 2016):

System: calf thymus double stranded DNA and ribosomal RNA
Experiment: Determination of DNA/RNA fluorescence ratios
Format: binding
Details: for DNA/RNA (fluorescence ratio): 65 ug/mL calf thymus dsDNA vs 65 ug/mL ribosomal RNA, 10 mM Tris, 1 mM EDTA pH 7.5, ratio of 1 = no selectivity; for ex/em: emission: emission value, second number of ex/em cell; for ex/em: excitation: excitation value, first number of ex/em cell
Protocol: The tested compound was dissolved as a stock solution in DMSO at a concentration of about 0.1-1.0 mg/mL. The exact concentration is not critical. Three tubes are prepared, each containing the same 1-20 uL of stock solution. The first tube contained 10 mM Tris, 1 mM EDTA (pH 7.5) buffer; the second tube contained buffer and 65 ug/mL calf thymus double stranded DNA; and the third tube contained buffer and 65 ug/mL ribosomal RNA. The tubes were incubated at room temperature for 10-15 minutes with protection from light.
In some cases, it was necessary to dilute the sample to keep the fluorescence signal on-scale. In these cases, all three samples were diluted to the same degree. The ratio of the fluorescence of the compound in the presence of DNA and RNA was determined.
The following compounds were selected as representative of the inventive class of compounds. The fluorescence values in the presence of DNA and RNA were determined as described in the previous Example. […] A ratio of 1 would indicate no selectivity. Excitation and emission values are in nm

Structure (SMILES) | ex/em: emission | ex/em: excitation | DNA/RNA (fluorescence ratio)
CCCN(CCC[N+](C)(C)C)C1=CC(=Cc2sc3cc(-c4c(OC)cccc4OC)ccc3[n+]2C)c2ccccc2N1Cc1ccccc1 [Compound 31] | 534 nm | 505 nm | 10.5
CCCN(CCCN(C)C)C1=CC(=Cc2sc3cc(-c4c(OC)cccc4OC)ccc3[n+]2C)c2ccccc2N1C [Compound 30] | 527 nm | 495 nm | 5.7
COc1cccc(OC)c1-c1ccc2c(c1)sc(C=C1C=CN(Cc3ccc(C[N+](C)(C)C)cc3)c3ccccc31)[n+]2C [Compound 48] | 540 nm | 513 nm | 7.3
COc1cccc(OC)c1-c1ccc2c(c1)sc(C=C1C=CN(Cc3ccc(CN4CCN(C)CC4)cc3)c3ccccc31)[n+]2C [Compound 44] | 540 nm | 510 nm | 22
CN1C(=Cc2cc[n+](C)c3ccccc23)Sc2ccccc21 [Thiazole orange, reference compound] | 530 nm | 510 nm | 1
CCN(CC)Cc1ccc(C2=CC(=Cc3sc4cc(-c5c(OC)cccc5OC)ccc4[n+]3C)c3ccccc3N2Cc2ccccc2)cc1 [Compound 25] | 559 nm | 518 nm | 9
COc1cccc(OC)c1-c1ccc2c(c1)sc(C=C1C=CN(C)c3ccccc31)[n+]2C [Compound 65] | 536 nm | 506 nm | 11.3
C#CCN1C(N(CCC)CCCN(C)C)=CC(=Cc2sc3cc(-c4c(OC)cccc4OC)ccc3[n+]2C)c2ccccc21 [Compound 34] | 532 nm | 503 nm | 5.8
CCCN(CCCN(C)C)C1=CC(=Cc2sc3cc(-c4c(OC)cccc4OC)ccc3[n+]2C)c2ccccc2N1Cc1ccccc1 [Compound 16] | 532 nm | 504 nm | 15.2
CCOC(=O)CCCOc1cccc(CN2C=C/C(=C\c3sc4cc(-c5c(OC)cccc5OC)ccc4[n+]3C)c3ccccc32)c1 [Compound 112] | 541 nm | 500 nm | 191
COc1cccc(OC)c1-c1ccc2c(c1)sc(C=C1C=CN(Cc3ccc(C[N+](C)(C)CCCN(C)C)cc3)c3ccccc31)[n+]2C [Compound 46] | 542 nm | 512 nm | 11.5
CCCN(CCCN(C)C)C1=CC(=Cc2sc3cc(-c4c(C)cccc4C)ccc3[n+]2C)c2ccccc2N1c1ccccc1 [Compound 68] | 523 nm | 498 nm | 7
Cc1cccc(C)c1-c1ccc2c(c1)sc(C=C1C=C(N(C)CCCN(C)C)N(c3ccccc3)c3ccccc31)[n+]2C [Compound 69] | 523 nm | 494 nm | 3.2
CCN(CC)Cc1ccc(C2=CC(=Cc3sc4cc(-c5ccccc5)ccc4[n+]3C)c3ccccc3N2c2ccccc2)cc1 [Compound 91] | 563 nm | 522 nm | 1.5
CCCCn1cc(N2C(N(CCC)CCCN(C)C)=CC(=Cc3sc4cc(-c5c(OC)cccc5OC)ccc4[n+]3C)c3ccccc32)nn1 [Compound 57] | 536 nm | 506 nm | 3.8
CNCCCN(C)C1=CC(=Cc2sc3cc(-c4c(OC)cccc4OC)ccc3[n+]2C)c2ccccc2N1Cc1ccccc1 [Compound 23] | 529 nm | 500 nm | 3.8
COc1cccc(OC)c1-c1ccc2c(c1)sc(C=C1C=C(N3CCNCC3)N(Cc3ccccc3)c3ccccc31)[n+]2C [Compound 21] | 534 nm | 510 nm | 5.4
COc1cccc(OC)c1-c1ccc2c(c1)sc(C=C1C=CN(Cc3ccc(CN4CCOCC4)cc3)c3ccccc31)[n+]2C [Compound 45] | 541 nm | 511 nm | 13.2
CCCN(CCCN(C)C)C1=CC(=Cc2sc3cc(-c4c(OC)cccc4OC)ccc3[n+]2C)c2ccccc2N1c1ccccc1 [Compound 28] | 527 nm | 497 nm | 6.5
COc1cccc(OC)c1-c1ccc2c(c1)sc(/C=C1\C=C(N(C)CCCC(=O)O)N(Cc3ccccc3)c3ccccc31)[n+]2C [Compound 109] | 525 nm | 496 nm | 121
CCCCC1=CC(=Cc2sc3cc(-c4c(OC)cccc4OC)ccc3[n+]2C)c2ccccc2N1Cc1ccccc1 [Compound 26] | 541 nm | 505 nm | 36
COc1cccc(OC)c1-c1ccc2c(c1)sc(C=C1C=C(N(C)CCN(C)C)N(Cc3ccccc3)c3ccccc31)[n+]2C [Compound 18] | 533 nm | 505 nm | 3.5
COc1cccc(OC)c1-c1ccc2c(c1)sc(C=C1C=CN(Cc3ccccc3)C(SCCCN(C)C)=C1)[n+]2C [Compound 102] | 515 nm | 475 nm | 3.3
CCCN(CCCN(C)C)C1=CC(=Cc2sc3cc(-c4c(OC)cccc4OC)ccc3[n+]2C)c2ccc(OC)cc2N1Cc1ccccc1 [Compound 38] | 522 nm | 497 nm | 13
COc1cccc(OC)c1-c1ccc2c(c1)sc(/C=C1\C=C(N(C)CCCC(=O)NCCOCCOCCOCCO)N(Cc3ccccc3)c3ccccc31)[n+]2C [Compound 111] | 527 nm | 497 nm | 64
Cc1cccc(C)c1-c1ccc2c(c1)sc(C=C1C=C(N(C)CCCN(C)C)N(Cc3ccccc3)c3ccccc31)[n+]2C [Compound 70] | 524 nm | 501 nm | 2.7
COc1cccc(OC)c1-c1ccc2c(c1)sc(C=C1C=CN(Cc3ccc(CN(C)CCCN(C)C)cc3)c3ccccc31)[n+]2C [Compound 47] | 541 nm | 512 nm | 8.6

Further lines, with some results ahead:

ex/em: emission | ex/em: excitation | Structure (SMILES) | DNA/RNA (fluorescence ratio)
538 nm | 513 nm | C[n+]1c(C=C2C=CN(Cc3ccccc3)c3ccccc32)sc2cc(-c3cccnc3)ccc21 [Compound 97] | 3.7
514 nm | 466 nm | C[n+]1c(C=C2C=CN(Cc3ccccc3)C(c3ccccc3)=C2)sc2cc(-c3ccccc3)ccc21 [Compound 93] | 1.5
551 nm | 513 nm | C[n+]1c(C=C2C=CN(Cc3ccccc3)c3ccccc32)sc2cc(-c3ccc(O)cc3)ccc21 [Compound 100] | 8.1
537 nm | 507 nm | C[n+]1c(C=CC=C2C=CN(Cc3ccccc3)c3ccccc32)sc2cc(-c3ccccc3)ccc21 [Compound 103] | 3.1
540 nm | 510 nm | COc1cccc(OC)c1-c1ccc2c(c1)sc(C=C1C=CN(Cc3ccccc3)c3ccccc31)[n+]2C [Compound 53] | 60
517 nm | 498 nm | COC1=CC(=Cc2sc3cc(-c4c(OC)cccc4OC)ccc3[n+]2C)c2ccccc2N1Cc1ccccc1 [Compound 32] | 36
666 nm | 652 nm | CCOC(=O)CCCOc1cccc(CN2C=CC(=CC=Cc3sc4cc(-c5ccccc5)ccc4[n+]3C)c3ccccc32)c1 [Compound 104] | 9
512 nm | 485 nm | C[n+]1c(C=C2C=CN(Cc3ccccc3)c3ccccc32)oc2ccc(-c3ccccc3)cc21 [Compound 89] | 1.8
541 nm | 513 nm | COc1cccc(OC)c1-c1ccc2c(c1)sc(C=C1C=CN(Cc3ccncc3)c3ccccc31)[n+]2C [Compound 55] | 10.9
539 nm | 510 nm | COc1cccc(OC)c1-c1ccc2c(c1)sc(C=C1C=CN(CCc3ccccc3)c3ccccc31)[n+]2C [Compound 62] | 48
530 nm | 513 nm | CC(=O)Nc1ccccc1-c1ccc2c(c1)sc(C=C1C=CN(Cc3ccccc3)c3ccccc31)[n+]2C [Compound 94] | 2.1
501 nm | 458 nm | C[n+]1c(C=C2C=CN(Cc3ccccc3)c3ccccc32)sc2cc(-c3ccccc3)ccc21 [Compound 92] | 1
555 nm | 527 nm | C[n+]1c(C=C2C=CN(Cc3ccccc3)c3ccccc32)sc2cc(-c3cccs3)ccc21 [Compound 96] | 8
